Holding throughout (assay type): cell-based, Plasmodium falciparum
In assay [1] the test system is P. falciparum D6 (CDC/Sierra Leone I, D-6). The experiment in a line: In vitro screening protocol I, [3H]-hypoxanthine incorporation, D6. The settings on record: for IC50: Plasmodium falciparum. The text has this:
(§1) Agents Chemother. 27 (4) (1985) 525-530). The system was limited to the assessment of the intrinsic activity against the erythrocytic asexual life cycle (blood schizontocides). Two Plasmodium falciparum clones from CDC/Indochina III (W-2) and CDC/Sierra Leone I (D-6) (Oduola A M, Weatherly N F, Bowdre J H, Desjardins R E. Plasmodium falciparum: cloning by single-erythrocyte micromanipulation and heterogeneity in vitro. Exp Parasitol. 66 (1) (1988) 86-95) were used for all assays. TM91C235, a multiple drug resistant isolate from Thailand (Antimicrob. Agents Chemother. 46 (8) (2002) 2627 and Antimicrob. Agents Chemother. 43 (3) (1999) 598-602), was used for the prescreening assay. W-2 is resistant to chloroquine, quinine, and pyrimethamine and susceptible to mefloquine. D-6 tends to be more resistant to mefloquine and susceptible to chloroquine, quinine, and pyrimethamine. All documents cited in this paragraph are incorporated by reference in their entirety.
(§2) All parasites were maintained in continuous long term cultures in RPMI-1640 medium supplemented with 6% washed human A positive (A+)(erythrocytes, 25 mM Hepes, […], and 10% heat inactivated A+ human plasma or ALBUMAX® (lipid-rich bovine serum albumin; Invitrogen, Carlsbad, Calif.). All cultures and assays were conducted at 37° C. under an atmosphere of 5% CO2 and 5% O2, with a balance of N2.
(§3) The prescreening assay uses TM91C235 diluted at a 0.4% parasitemia in a 1% hematocrit in folic acid free and p-aminobenzoic acid free media RPMI-1640 and ALBUMAX®. […] The compound is further diluted in folate free (FF) culture medium with ALBUMAX® for the first initial starting concentration. The rest of the stock drug solution was kept at −70° C. The isolate was preexposed, in duplicate, at three concentrations (25,000 ng/ml, 2,500 ng/ml, and […]) of the test compound for 48 hr in a 96-well microtiter plate (MTP) using the BIOMEK® 2000 automated laboratory workstation. Each MTP contains chloroquine as control to assess the relative activity of the compound and to monitor the response of TM91C235.
(§4) After the preincubation, [^3H]-hypoxanthine was added to each well of the MTP. (The assay relies on the incorporation of radiolabeled hypoxanthine by the parasites, which indicates reproduction, and inhibition of isotope incorporation was attributed to activity of known or candidate antimalarial drugs). After 72 hours of total incubation time, the MTP were frozen to lyse the erythrocytes and parasites. The parasite DNA was recovered by harvesting the lysate onto glass-fiber filter plates using a Packard FilterMate™ Cell Harvester. The radioactivity was counted on a Packard TopCount™ microplate scintillation counter.
(§5) The serial dilution assay was conducted using the same assay conditions and stock solution of the compound used for the preliminary screen, described above. Both the D-6 and the W-2 clones were used. The compounds were diluted two-fold over 11 different concentration ranges with a starting concentration that was based on the preliminary screen. For each drug, the concentration response profile was determined and 50% inhibitory concentrations (IC50) were determined by using a non-linear, logistic dose response analysis program. […] For each assay, the IC50 for each clone was determined against the known antimalarials chloroquine and mefloquine. These control values established the compound's relative parasite susceptibility profile compared to known antimalarials. […]

For assay [2], the system named is P. falciparum TM91C235. In words: In vitro screening protocol I, [3H]-hypoxanthine incorporation, TM91C235. The settings on record: for IC50: Plasmodium falciparum, read-out: IC50 TM91C235.
Excerpt: as §1, §2, §3, §4, §5

In assay [3] the test system is P. falciparum W2 (CDC/Indochina III, W-2). The experiment in a line: In vitro screening protocol I, [3H]-hypoxanthine incorporation, W2. The settings on record: for IC50: Plasmodium falciparum.
Excerpt: as §1, §2, §3, §4, §5

Setting [4] is: In vitro screening protocol I, P. falciparum D6.
Setting [5] is: In vitro screening protocol I, P. falciparum TM91C235.
[6] abbreviates: In vitro screening protocol I, P. falciparum W2.
The mark [7] stands for this setting: In vitro screening protocol I, P. falciparum D6, read-out: IC50 D6.
Where [8] appears, read: In vitro screening protocol I, P. falciparum W2, read-out: IC50 W2.

Each structure is given as a SMILES string. ≈ marks a conversion by molar mass, not a printed value. Counter-ions that a name gives are not always drawn. Like-named read-outs stand apart in the source and are kept apart here.

`CC[C@H]1OC(=O)[C@H](C)[C@@H](O[C@H]2C[C@@](C)(OC)[C@@H](O)[C@H](C)O2)[C@H](C)[C@@H](O[C@@H]2O[C@H](C)C[C@H](N(C)C)[C@H]2O)[C@](C)(O)C[C@@H](C)CN(CCNCc2cccc3ccccc23)[C@H](C)[C@@H](O)[C@]1(C)O` [Example 16, 9a-{2-[(Naphtalen-1-yl-methyl)amino]ethyl}-9-deoxo-9-dihydro-9a-aza-9a-homoerythromycin A]: the “IC50 D6” value in assay [1] (setting [4]) is recorded as “B (100 < X ≦ 200)”. Moreover, the “IC50 TM91C235” value in assay [2] (setting [5]) is “A (X ≦ 100)”. The “IC50 W2” value in assay [3] (setting [6]) is listed as “A (X ≦ 100)”.

Broadly, the IC50 is the concentration that inhibits the measured activity by half. With `CC[C@H]1OC(=O)[C@H](C)[C@@H](O)[C@H](C)[C@@H](O[C@@H]2O[C@H](C)C[C@H](N(C)C)[C@H]2O)[C@](C)(O)C[C@@H](C)CN(CCCNc2ccnc3ccccc23)[C@H](C)[C@@H](O)[C@]1(C)O` [Example 24, 9a-[3-(Quinolin-4-yl-amino)propyl]-3-O-decladinosyl-9-deoxo-9-dihydro-9a-aza-9a-homoerythromycin A], the IC50 in assay [1] (setting [7]) fell in the range of 0.1 to 0.2 µg/mL (≈ 0.131 to 0.263 µM); in assay [2] (setting [5]), 0.2 to 1 µg/mL (≈ 0.263 to 1.31 µM); in assay [3] (setting [8]), 0.1 to 0.2 µg/mL (≈ 0.131 to 0.263 µM).

In the case of `CC[C@H]1OC(=O)[C@H](C)[C@@H](O)[C@H](C)[C@@H](O[C@@H]2O[C@H](C)C[C@H](N(C)C)[C@H]2O)[C@](C)(O)C[C@@H](C)CN(CCCNC(=O)Cc2cccc3ccccc23)[C@H](C)[C@@H](O)[C@]1(C)O` [Example 36, 9a-{3-[(Naphtalen-1-yl-acetyl)amino]propyl}-3-O-decladinosyl-9a-aza-9-deoxo-9-dihydro-9a-homoerythromycin A Formiate Salt], the IC50 in assay [1] (setting [7]), in assay [2] (setting [5]) and in assay [3] (setting [8]) was 1 to 2.5 µg/mL throughout.

Regarding `CC[C@H]1OC(=O)[C@H](C)[C@@H](O[C@H]2C[C@@](C)(OC)[C@@H](O)[C@H](C)O2)[C@H](C)[C@@H](O[C@@H]2O[C@H](C)C[C@H](N(C)C)[C@H]2O)[C@](C)(O)C[C@@H](C)CN(CCCNCc2ccccc2)[C@H](C)[C@@H](O)[C@]1(C)O` [Example 52, 9a-{3-[(Phenylmethyl)amino]propyl}-9-deoxo-9-dihydro-9a-aza-9a-homoerythromycin A], the IC50 is 0.2 to 1 µg/mL (≈ 0.227 to 1.13 µM) in assay [1] (D6, read-out: IC50 D6); less than 0.1 µg/mL in assay [2]; less than 0.1 µg/mL in assay [3] (W2, read-out: IC50 W2).

Consider `CC[C@H]1OC(=O)[C@H](C)[C@@H](O[C@H]2C[C@@](C)(OC)[C@@H](O)[C@H](C)O2)[C@H](C)[C@@H](O[C@@H]2O[C@H](C)C[C@H](N(C)C)[C@H]2O)[C@](C)(O)C[C@@H](C)CN(CCCNCc2cccnc2)[C@H](C)[C@@H](O)[C@]1(C)O` [Example 12, 9a-{3-[(Pyridine-3-yl-methyl)amino]propyl}-9-deoxo-9-dihydro-9a-aza-9a-homoerythromycin A], for which, in assay [1] (setting [4]), the “IC50 D6” value is given as “C (200 < X ≦ 1000)”. Besides, the “IC50 TM91C235” value in assay [2] (setting [5]) is given as “C (200 < X ≦ 1000)”. Further, the “IC50 W2” value in assay [3] (setting [6]) is on record as “C (200 < X ≦ 1000)”.

Turning to `CC[C@H]1OC(=O)[C@H](C)[C@@H](O[C@H]2C[C@@](C)(OC)[C@@H](O)[C@H](C)O2)[C@H](C)[C@@H](O[C@@H]2O[C@H](C)C[C@H](N(C)C)[C@H]2O)[C@](C)(O)C[C@@H](C)CN(CCCNC(=O)CCCc2ccccc2)[C@H](C)[C@@H](O)[C@]1(C)O` [Example 28, 9a-{3-[(4-Phenylbutanoyl)amino]propyl}-9a-aza-9-deoxo-9-dihydro-9a-homoerythromycin A Formiate Salt], the IC50 is 0.2 to 1 µg/mL in assay [1] (setting [7]), less than 0.1 µg/mL in assay [2] (setting [5]) and 0.2 to 1 µg/mL in assay [3] (setting [8]).

Regarding `CC[C@H]1OC(=O)[C@H](C)[C@@H](O[C@H]2C[C@@](C)(OC)[C@@H](O)[C@H](C)O2)[C@H](C)[C@@H](O[C@@H]2O[C@H](C)C[C@H](N(C)C)[C@H]2O)[C@](C)(O)C[C@@H](C)CN(CCC(=O)NCCCCc2ccccc2)[C@H](C)[C@@H](O)[C@]1(C)O` [Example 41], the IC50 in assay [1] (setting [7]) was 0.1 to 0.2 µg/mL (≈ 0.107 to 0.213 µM); in assay [2] (setting [5]), less than 0.1 µg/mL; in assay [3] (setting [8]) it was less than 0.1 µg/mL.

As to `CC[C@H]1OC(=O)[C@H](C)[C@@H](O)[C@H](C)[C@@H](O[C@@H]2O[C@H](C)C[C@H](N(C)C)[C@H]2O)[C@](C)(O)C[C@@H](C)CN(CCCNCc2cnc3ccccc3c2)[C@H](C)[C@@H](O)[C@]1(C)O` [Example 5, 9a-{3-[(Quinolin-3-yl-methyl)amino]propyl}-3-O-decladinosyl-9-deoxo-9-dihydro-9a-aza-9a-homoerythromycin A], the figures for the IC50 in assay [1] (setting [7]), in assay [2] (setting [5]) and in assay [3] (setting [8]) were 0.2 to 1 µg/mL (≈ 0.258 to 1.29 µM), 0.1 to 0.2 µg/mL (≈ 0.129 to 0.258 µM) and 0.1 to 0.2 µg/mL (≈ 0.129 to 0.258 µM), respectively.

Consider `CC[C@H]1OC(=O)[C@H](C)[C@@H](O[C@H]2C[C@@](C)(OC)[C@@H](O)[C@H](C)O2)[C@H](C)[C@@H](O[C@@H]2O[C@H](C)C[C@H](N(C)C)[C@H]2O)[C@](C)(O)C[C@@H](C)CN(CCCNCc2ccccn2)[C@H](C)[C@@H](O)[C@]1(C)O` [Example 18, 9a-{3-[(Pyridin-2-yl-methyl)amino]propyl}-9-deoxo-9-dihydro-9a-aza-9a-homoerythromycin A], for which the IC50 was in the range of 1 to 2.5 µg/mL (≈ 1.13 to 2.83 µM) in assay [1] (setting [7]), 1 to 2.5 µg/mL (≈ 1.13 to 2.83 µM) in assay [2] (setting [5]) and 0.2 to 1 µg/mL (≈ 0.226 to 1.13 µM) in assay [3] (setting [8]).

Regarding `CC[C@H]1OC(=O)[C@H](C)[C@@H](O[C@H]2C[C@@](C)(OC)[C@@H](O)[C@H](C)O2)[C@H](C)[C@@H](O[C@@H]2O[C@H](C)C[C@H](N(C)C)[C@H]2O)[C@](C)(O)C[C@@H](C)CN(CCCN(C)Cc2cccc3ccccc23)[C@H](C)[C@@H](O)[C@]1(C)O` [Example 17, 9a-{3-[Methyl-(naphtalen-1-yl-methyl)amino]propyl}-9-deoxo-9-dihydro-9a-aza-9a-homoerythromycin A], the values for the IC50 in assay [1] (setting [7]), in assay [2] (setting [5]) and in assay [3] (setting [8]) were 0.1 to 0.2 µg/mL (≈ 0.106 to 0.211 µM), less than 0.1 µg/mL and less than 0.1 µg/mL, respectively.

For the compound `CC[C@H]1OC(=O)[C@H](C)[C@@H](O[C@H]2C[C@@](C)(OC)[C@@H](O)[C@H](C)O2)[C@H](C)[C@@H](O[C@@H]2O[C@H](C)C[C@H](N(C)C)[C@H]2O)[C@](C)(O)C[C@@H](C)CN(CCC(=O)NCCc2ccccc2)[C@H](C)[C@@H](O)[C@]1(C)O` [Example 39], the IC50 in assay [1] (setting [7]), in assay [2] (setting [5]) and in assay [3] (setting [8]) was 0.2 to 1 µg/mL (≈ 0.22 to 1.1 µM) throughout.

On to `CC[C@H]1OC(=O)[C@H](C)[C@@H](O[C@H]2C[C@@](C)(OC)[C@@H](O)[C@H](C)O2)[C@H](C)[C@@H](O[C@@H]2O[C@H](C)C[C@H](N(C)C)[C@H]2O)[C@](C)(O)C[C@@H](C)CN(CCCNC(=O)c2ocnc2C)[C@H](C)[C@@H](O)[C@]1(C)O` [Example 34, 9a-(3-{[(4-Methyl-1,3-oxazol-5-yl)carbonyl]amino}propyl)-9a-aza-9-deoxo-9-dihydro-9a-homoerythromycin A Formiate Salt], for which the IC50 in assay [1] (setting [7]) fell in the range of 2.5 to 2.8 µg/mL; in assay [2] (setting [5]), 0.2 to 1 µg/mL; in assay [3] (setting [8]) it was 1 to 2.5 µg/mL.

On to `CC[C@H]1OC(=O)[C@H](C)[C@@H](O)[C@H](C)[C@@H](O[C@@H]2O[C@H](C)C[C@H](N(C)C)[C@H]2O)[C@](C)(O)C[C@@H](C)CN(CCCNC(=O)[C@H](C)c2ccc3cc(OC)ccc3c2)[C@H](C)[C@@H](O)[C@]1(C)O` [Example 37, 9a-[3-({(2S)-2-[6-(methyloxy)-naphthalen-2-yl]propanoyl}amino)propyl]-3-O-decladinosyl-9a-aza-9-deoxo-9-dihydro-9a-homoerythromycin A Formiate Salt], for which the IC50 in assay [1] (setting [7]), in assay [2] (setting [5]) and in assay [3] (setting [8]) was 0.2 to 1 µg/mL in each case.

(Values after patent US20090105301A1, “9A-SUBSTITUTED AZALIDES FOR THE TREATMENT OF MALARIA” (priority 2006, published 2009).)
